Measurements as given in US20230374148A1, “BINDING MOLECULES THAT MULTIMERISE CD45” (UCB BIOPHARMA SRL, priority 2020, published 2023).

How the values were obtained:
Jurkat = assay: Apoptosis of cell lines: Jurkat; type: cell-based; conditions: 21 hrs, 500 nM
Description: (§1) The following cell lines representing various leukaemia's and lymphoma's, as classified by ATCC (www.atcc.org/), were used: Jurkat—acute T-cell leukaemia; CCRF-SB—B-cell acute lymphoblastic leukaemia; MC116—B-cell undifferentiated lymphoma; Raji, Ramos—Burkitt lymphoma (rare form of B-cell non-Hodgkin lymphoma); SU-DHL-4, SU-DHL-5, SU-DHL-8, NU-DUL-1, OCI-Ly3—Diffuse large B-cell lymphoma; THP-1—acute monocytic leukaemia; and Dakiki—B cell nasopharyngeal carcinoma.
(§2) Prior to an assay being performed, 1 vial of each of the above cell lines was thawed in a 37° C. water bath and then added to 20 ml complete media (RPMI 1640+2 mM GlutaMAX+1% Pen/Strep, all previous supplied by Invitrogen, +10% Fetal Bovine Serum (FBS), Sigma Aldrich). Cells were spun (500 g, 5 min, at RT) and re-suspended in 20 ml complete media to wash and spun again. Cells were resuspended in 10 ml complete media and then counted using a ChemoMetec NucleoCounter NC-3000. 6×10^6 cells of each cell line were spun (500 g, 5 min, at RT) and re-suspended in 4.8 ml complete media. 1×10^5 cells in 80 μl were then added to each well of a Corning Costar 96-well, cell culture treated, U-shaped-bottom microplate (cat no. 07-200-95). The plate was rested in a 37° C., 5% CO2 incubator for 2 hrs
(§3) Stocks of 4133-6294 BYbe and NegCtrl BYbe at 2500 nM in complete media were prepared. In a Greiner 96-well non-binding microplate, both reagents were serially diluted in complete media 1 in 5, seven times to produce to form an 8-point dose curve. […] (final well concentrations 500-0.0064 nM) was added to the cells. Each concentration was produced in triplicate. Camptothecin (cat no. C9911-100MG, Sigma Aldrich) and Staurosporine (cat no. 56942-200UL, Sigma Aldrich) were added as positive controls of apoptosis. Both were diluted in complete media and added to the well to produce a final concentration of 5 μM. Additional positive controls included anti-thymocyte globulin (ATG, indicated by FDA for use in conditioning regimens), Rituximab (anti-CD20, indicated by FDA for Non-Hodgkin Lymphoma and Chronic Lymphocytic Leukaemia) and Campath (anti-CD52, indicated by FDA for B-cell Chronic Lymphocytic Leukaemia). Anti-thymocyte globulin, Rituximab and Campath were added to the wells to produce final concentrations of 200 μg/ml, 500 nM and 200 μg/ml, respectively. […]
(§4) Following the incubation, the plates were spun at 500 g, 5 min, RT, the buffer was aspirated with a BioTek ELx405 microplate washer, and the cells were re-suspended in FACS buffer (PBS+1% bovine serum albumin (BSA)+0.1% NaN3+2 mM EDTA, Sigma Aldrich) to wash and then re-spun and buffer was aspirated to leave the cells in 20 μl residual media. […] Cells were analysed using the Bio-Rad ZE5 Cell Analyzer. […]

CCRF-SB = assay: Apoptosis of cell lines: CCRF-SB; type: cell-based; conditions: 21 hrs, 500 nM
Description: as §1, §2, §3, §4

MC116 = assay: Apoptosis of cell lines: MC116; type: cell-based; conditions: MC116, 21 hrs, 500 nM
Description: as §1, §2, §3, §4

Raji = assay: Apoptosis of cell lines: Raji; type: cell-based; conditions: 21 hrs, 500 nM
Description: as §1, §2, §3, §4

Ramos = assay: Apoptosis of cell lines: Ramos; type: cell-based; conditions: 21 hrs, 500 nM
Description: as §1, §2, §3, §4

SU-DHL-4 = assay: Apoptosis of cell lines: SU-DHL-4; type: cell-based; conditions: SU-DHL-4, 21 hrs, 500 nM
Description: as §1, §2, §3, §4

SU-DHL-5 = assay: Apoptosis of cell lines: SU-DHL-5; type: cell-based; conditions: SU-DHL-5, 21 hrs, 500 nM
Description: as §1, §2, §3, §4

SU-DHL-8 = assay: Apoptosis of cell lines: SU-DHL-8; type: cell-based; conditions: SU-DHL-8, 21 hrs, 500 nM
Description: as §1, §2, §3, §4

NU-DUL-1 = assay: Apoptosis of cell lines: NU-DUL-1; type: cell-based; conditions: NU-DUL-1, 21 hrs, 500 nM
Description: as §1, §2, §3, §4

OCI-Ly3 = assay: Apoptosis of cell lines: OCI-Ly3; type: cell-based; conditions: OCI-Ly3, 21 hrs, 500 nM
Description: as §1, §2, §3, §4

THP-1 = assay: Apoptosis of cell lines: THP-1; type: cell-based; conditions: THP-1, 21 hrs, 500 nM
Description: as §1, §2, §3, §4

Dakiki = assay: Apoptosis of cell lines: Dakiki; type: cell-based; conditions: 21 hrs, 500 nM
Description: as §1, §2, §3, §4

[1] = molecular target: T1, CD45 domains 1-4 of the extracellular domain (UniProtKB P08575, residues 225-573) with C-terminal TEV cleavage site and 10-His tag (human); assay: SPR, Biacore 3000, 25 C; Fab captured by anti-mouse F(ab)2, CD45 D1-D4 titrated 50 nM to 0.05 nM
[2] = molecular target: T1, CD45 domains 1-4 of the extracellular domain; assay: SPR, Biacore 3000, 25 C; Fab captured by anti-rabbit F(ab)2, CD45 D1-D4 titrated 50 nM to 0.05 nM

Molecule: Rituximab: anti-CD20, indicated by FDA for Non-Hodgkin Lymphoma and Chronic Lymphocytic Leukaemia; positive control [reference compound]
- Rituximab mean (%) cell reduction (Jurkat): 6.52%
- Rituximab mean (%) cell reduction (CCRF-SB): 59.87%
- Rituximab mean (%) cell reduction (MC116): 98.13%
- Rituximab mean (%) cell reduction (Raji): 87.89%
- Rituximab mean (%) cell reduction (Ramos): 91.05%
- Rituximab mean (%) cell reduction (SU-DHL-4): 79.76%
- Rituximab mean (%) cell reduction (SU-DHL-5): 61.26%
- Rituximab mean (%) cell reduction (SU-DHL-8): 15.25%
- Rituximab mean (%) cell reduction (NU-DUL-1): 87.04%
- Rituximab mean (%) cell reduction (OCI-Ly3): 19.05%
- Rituximab mean (%) cell reduction (THP-1): 23.12%
- Rituximab mean (%) cell reduction (Dakiki): 58.55%

B1: 6294 mouse Fab (Fab, V domains shown)
VH: EVQLVESGAELARPGASVKMSCKASGYTFTSYTMHWVKQRPGQGLEWIGYINPSSGYTEYNQKFKDKTTLTADKSSSTAYLQLSSLTSEDSAVYYCARVGDGFYPSWLAYWGQGTLVTVSS
VL: DIQMTQSPKFLLVSAGDRVTITCKASQSVRNDVAWYQQKPGQSPKLLIFYASKRYTGVPDRFTGSGYGTDFTFTISTVQAEDLAVYFCQQDYSSPTTFGGGTKLEIK
- Kd [1]: 0.085 nM
- koff [1]: 0.00022 s⁻¹
- kon [1]: 2.6e+06 M⁻¹ s⁻¹

B2: 4133 rabbit Fab (Fab, V domains shown)
VH: QEQLVESGGGLVQPEGSLTLTCTASGFSFSGNYYMCWVRQAPGKGLEWIGCLYTGSSGSTYYASWAKGRFTISKTSSTTVTLQMTSLTAADTATYFCARDLGYEIDGYGGLWGQGTLVTVSS
VL: AQVLTQTPSPVSAVVGGTVSISCQASQSVYNNNNLSWYQQKPGQPPKLLIYDASKLASGVPSRFKGSGSGTQFTLTISGVQCDDAATYYCLGGYYSSGWYFAFGGGTKVVVKR
- Kd [2]: 61 nM
- koff [2]: 0.035 s⁻¹
- kon [2]: 570000 M⁻¹ s⁻¹
